Measurements from the NIST ThermoML archive (doi:10.1016/j.jct.2018.06.015).
Numbers after ± are expanded uncertainties.

Key:
[1] = 100 kPa, Liquid; for speed of sound: Frequency=3 MHz, Single path-length method; for mass density: Vibrating tube method
[2] = xn = mol fraction of the nth substance listed; details: 100 kPa, Liquid, x2 = 0; for speed of sound: Frequency=3 MHz, Single path-length method; for mass density: Vibrating tube method

Compound | speed of sound ([1]; 293.15 K) [m/s] | mass density ([1]; 293.15 K) [kg/m3] | speed of sound ([1]; 298.15 K) [m/s] | mass density ([1]; 298.15 K) [kg/m3] | speed of sound ([1]; 303.15 K) [m/s] | mass density ([1]; 303.15 K) [kg/m3] | speed of sound ([1]; 308.15 K) [m/s] | mass density ([1]; 308.15 K) [kg/m3] | speed of sound ([1]; 313.15 K) [m/s] | mass density ([1]; 313.15 K) [kg/m3] | speed of sound ([2]; 293.15 K) [m/s] | mass density ([2]; 293.15 K) [kg/m3] | speed of sound ([2]; 298.15 K) [m/s] | mass density ([2]; 298.15 K) [kg/m3] | speed of sound ([2]; 303.15 K) [m/s] | mass density ([2]; 303.15 K) [kg/m3] | speed of sound ([2]; 308.15 K) [m/s] | mass density ([2]; 308.15 K) [kg/m3] | speed of sound ([2]; 313.15 K) [m/s] | mass density ([2]; 313.15 K) [kg/m3]
CCCCOCCOCCO [3,6-dioxa-1-decanol] | 1378.2 ± 2.5 | 952.288 ± 0.41 | 1361.3 ± 2.5 | 948.1 ± 0.41 | 1344.5 ± 2.5 | 943.909 ± 0.41 | 1326.4 ± 2.5 | 939.704 ± 0.41 | 1307.7 ± 2.5 | 935.503 ± 0.41 |  |  |  |  |  |  |  |  |  | 
CCCCCCO [hexan-1-ol] + CCCCOCCOCCO |  |  |  |  |  |  |  |  |  |  | 1320.4 ± 2.5 | 819.239 ± 0.42 | 1303.5 ± 2.5 | 815.652 ± 0.42 | 1286.7 ± 2.5 | 812.043 ± 0.42 | 1270 ± 2.5 | 808.402 ± 0.42 | 1253.5 ± 2.5 | 804.743 ± 0.42
CCCCCCCCCCO [decan-1-ol] + CCCCOCCOCCO |  |  |  |  |  |  |  |  |  |  | 1396.7 ± 2.5 | 829.898 ± 0.42 | 1379.4 ± 2.5 | 826.489 ± 0.42 | 1362.4 ± 2.5 | 823.069 ± 0.42 | 1345.6 ± 2.5 | 819.635 ± 0.42 | 1329.1 ± 2.5 | 816.188 ± 0.42
CCCCCCCCO [octan-1-ol] + CCCCOCCOCCO |  |  |  |  |  |  |  |  |  |  | 1364.1 ± 2.4 | 825.337 ± 0.41 | 1347.3 ± 2.4 | 821.877 ± 0.41 | 1331 ± 2.4 | 818.4 ± 0.41 | 1314.3 ± 2.4 | 814.903 ± 0.41 | 1297.7 ± 2.4 | 811.385 ± 0.41
